The text below walks through data of PMC5405701 (ChemMedChem, 2017).

One data set deals with VERO cells. Nature of the data set: toxicity to normal cells, MTT assay, VERO.
The next data set deals with ERβ (Homo sapiens, UniProt Q92731). As to the kind of experiment: cell-based. The conditions noted are these: for Emax: HEK-293T, 24 h, read-out: Agonist Mode ERβ Eff (%E2); for transcriptional activity profile on ERβ: reporter gene assay, HEK293T. The data set is classed as cell-based. On the technique in general: In a reporter assay the amount or activity of a reporter protein is the signal.

For data set [1], the system named is MCF-7 breast cancer cells. As to the kind of experiment: antiproliferative activity, MTT assay, MCF-7. The conditions noted are these: Homo sapiens, MCF7, 72 h, read-out: MCF-7 Inhibition (%).
Data set [2] concerns the target T1, human ERα ligand binding domain (LBD) (Homo sapiens, UniProt P03372).
T1 sequence (P03372 311-547 limits assumed): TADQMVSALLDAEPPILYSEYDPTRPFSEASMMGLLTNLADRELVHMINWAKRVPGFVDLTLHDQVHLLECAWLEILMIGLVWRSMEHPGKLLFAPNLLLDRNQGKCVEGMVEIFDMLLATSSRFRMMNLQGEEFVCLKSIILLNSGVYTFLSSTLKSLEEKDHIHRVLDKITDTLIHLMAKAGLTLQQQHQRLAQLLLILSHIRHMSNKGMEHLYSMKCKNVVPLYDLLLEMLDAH
Nature of the data set: competitive fluorometric. The conditions noted are these: relative to parent 2a (compared to 2a and 4a).

The target in a further data set is ERα (Homo sapiens, UniProt P03372). Nature of the data set: cell-based. The data set is classed as cell-based. The conditions noted are these: for Agonist Mode ERα Eff (%E2): maximal response as percentage of response to 10^−8 M E2, HEK293T; for transcriptional activity profile on ERα: reporter gene assay, HEK293T.
Data set [3] addresses human ERβ ligand binding domain (LBD) (Homo sapiens, UniProt Q92731). Nature of the data set: competitive fluorometric. The note with it: ratio of RBA ERβ to RBA ERα.

Values joined by “and” are separate entries in the source; they are usually repeats but may differ in a detail not shown here. Identical values can stand only once.

Chain of ERβ (Q92731 whole entry): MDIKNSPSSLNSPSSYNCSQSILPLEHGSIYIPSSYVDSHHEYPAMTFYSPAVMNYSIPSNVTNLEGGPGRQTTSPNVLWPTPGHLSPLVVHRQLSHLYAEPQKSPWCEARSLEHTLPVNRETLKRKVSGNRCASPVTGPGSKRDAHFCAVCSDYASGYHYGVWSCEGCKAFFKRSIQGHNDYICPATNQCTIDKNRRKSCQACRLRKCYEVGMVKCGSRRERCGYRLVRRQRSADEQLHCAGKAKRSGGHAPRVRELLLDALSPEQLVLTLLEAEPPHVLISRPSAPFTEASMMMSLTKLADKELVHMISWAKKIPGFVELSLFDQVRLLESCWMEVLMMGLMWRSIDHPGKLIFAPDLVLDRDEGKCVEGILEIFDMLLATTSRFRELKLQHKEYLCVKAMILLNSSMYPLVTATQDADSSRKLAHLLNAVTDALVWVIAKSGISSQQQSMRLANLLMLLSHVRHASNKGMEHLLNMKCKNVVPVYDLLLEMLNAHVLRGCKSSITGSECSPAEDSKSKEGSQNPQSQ
Chain of ERα (P03372 whole entry, the tested form may be a part): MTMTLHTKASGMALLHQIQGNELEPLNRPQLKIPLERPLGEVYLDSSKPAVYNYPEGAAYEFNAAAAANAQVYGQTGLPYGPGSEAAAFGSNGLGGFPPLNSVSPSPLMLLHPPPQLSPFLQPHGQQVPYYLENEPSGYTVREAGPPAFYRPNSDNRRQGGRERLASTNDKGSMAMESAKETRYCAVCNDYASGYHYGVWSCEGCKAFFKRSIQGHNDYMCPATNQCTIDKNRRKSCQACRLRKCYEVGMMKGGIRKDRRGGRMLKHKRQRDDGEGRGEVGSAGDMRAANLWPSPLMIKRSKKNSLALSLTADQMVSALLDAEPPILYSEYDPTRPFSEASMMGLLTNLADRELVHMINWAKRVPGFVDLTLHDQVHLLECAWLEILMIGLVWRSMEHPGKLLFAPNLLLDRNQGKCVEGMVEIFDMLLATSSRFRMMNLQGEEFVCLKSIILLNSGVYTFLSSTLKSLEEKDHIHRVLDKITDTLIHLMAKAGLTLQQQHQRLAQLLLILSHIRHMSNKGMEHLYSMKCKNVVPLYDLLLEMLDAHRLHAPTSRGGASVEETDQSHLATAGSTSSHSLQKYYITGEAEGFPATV
Chain of human ERβ ligand binding domain (LBD) (Q92731 264-498 limits assumed): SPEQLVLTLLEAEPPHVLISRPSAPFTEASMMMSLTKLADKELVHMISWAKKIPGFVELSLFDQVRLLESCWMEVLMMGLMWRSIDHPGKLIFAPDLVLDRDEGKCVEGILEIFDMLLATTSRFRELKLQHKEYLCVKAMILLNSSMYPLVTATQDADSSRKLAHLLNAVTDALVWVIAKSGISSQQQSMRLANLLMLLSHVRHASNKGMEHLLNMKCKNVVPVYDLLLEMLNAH

A word on the inhibition: it is how much of the control response was suppressed. Consider `CC/C(=C(\c1ccc(O)cc1)c1ccc(OCCN(C)C)cc1)c1ccccc1` [Compound 4OHT, 4-hydroxytamoxifen, reference compound], for which, in the data set with VERO cells, the “toxicity to healthy VERO cells” value is listed as “considerable toxicity”. Also, at ERβ, the “Agonist Mode ERβ Eff (%E2)” value is on record as −1 ± 1 %E2 and the “Antagonist Mode ERβ Eff (%E2)” value was −20 ± 2 %E2. Also, in data set [1], the inhibition at 10 µM was determined as 81.7%.
A word on the EC50: it is the concentration that produces a half-maximal response. The low end stands for an effect from little substance, the high end for a need for much substance. In the case of `Oc1ccc(-c2cc(Br)c(-c3ccc(O)cc3)[se]2)cc1` [Compound 6a, 3-Bromo-2,5-bis(4-hydroxyphenyl)selenophene], the “fold increase in binding affinity for ERα over 2a” value in data set [2] was 8 fold and ~10 fold. For the same molecule, at ERα, the half-maximal effective concentration (EC50) came out at 15 nM, the “Agonist Mode ERα Eff (%E2)” value was determined as 69 ± 11 %E2 and the “transcriptional activity profile on ERα” value is recorded as “full agonist”. Further, the β/α in data set [3] is given as 2.32. Moreover, on ERβ, a half-maximal response (EC50) required 13 nM, the Emax came to 40 ± 5% and the “transcriptional activity profile on ERβ” value was “partial agonist”. In data set [1], the inhibition at 10 µM came out at 0%.
`Cc1cc(O)ccc1-c1cc(Br)c(-c2ccc(O)cc2C)[se]1` [Compound 6b, 3-Bromo-2,5-bis(4-hydroxy-2-methylphenyl)selenophene]: in data set [2], the “fold increase in binding affinity for ERα over 2a” value is “more than 23 fold”. Besides, on ERα, the EC50 is 790 nM and the “Agonist Mode ERα Eff (%E2)” value is listed as 21 ± 5 %E2. Further, the β/α in data set [3] turned out to be 0.74. Also, on ERβ, the EC50 worked out at 9 nM, the Emax came to 69 ± 9% and the “transcriptional activity profile on ERβ” value was “antagonist”. The inhibition at 10 µM in data set [1] was 2.5%.
With `Oc1ccc(-c2cc(Br)c(-c3ccc(O)c(Cl)c3)[se]2)cc1Cl` [Compound 6e, 3-Bromo-2,5-bis(3-chloro-4-hydroxyphenyl)selenophene], the “Agonist Mode ERα Eff (%E2)” value on ERα is −23 ± 3 %E2. For the same molecule, in data set [3], the β/α is 0.25. The Emax on ERβ amounted to 27 ± 2%. Further, the inhibition at 10 µM in data set [1] amounted to 11.3%.
As to `Oc1cc(-c2cc(Br)c(-c3ccc(F)c(O)c3)[se]2)ccc1F` [Compound 6f, 3-Bromo-2,5-bis(4-fluoro-5-hydroxyphenyl)selenophene], at ERα, a half-maximal response (EC50) required 120 nM, the “Agonist Mode ERα Eff (%E2)” value is recorded as 226 ± 28 %E2 and the “transcriptional activity profile on ERα” value is recorded as “superagonist”. Further, the “efficacy on ERα, times greater than that of estradiol” value on ERα (agonist mode) is 2.2 times. Besides, the β/α in data set [3] worked out at 0.28. For the same molecule, at ERβ, the EC50 came to 300 nM and the Emax came out at 31 ± 7%. Further, the inhibition at 10 µM in data set [1] was 0%.
Consider `Oc1ccc(-c2cc(Br)c(-c3ccc(O)cc3F)[se]2)c(F)c1` [Compound 6g, 3-Bromo-2,5-bis(2-fluoro-4-hydroxyphenyl)selenophene], for which the “Agonist Mode ERα Eff (%E2)” value on ERα amounted to 73 ± 9 %E2. Further, the β/α in data set [3] was 1.30. Besides, at ERβ, the Emax was 50 ± 3%. Moreover, in data set [1], the inhibition at 10 µM was 8.1%.
Take `Oc1ccc(-c2cc(-c3ccc(O)cc3)c(-c3ccc(O)cc3)[se]2)cc1` [Compound 8a, 2,3,5-Tris(4-hydroxyphenyl)selenophene]: on ERα, the “Agonist Mode ERα Eff (%E2)” value is recorded as −4 ± 3 %E2 and the “transcriptional activity profile on ERα” value is recorded as “antagonist”. In addition, the β/α in data set [3] amounted to 1.15. In addition, on ERβ, the Emax was 12 ± 3% and the “transcriptional activity profile on ERβ” value is recorded as “antagonist”. In data set [1], the inhibition at 10 µM worked out at 29.6%.
On to `Cc1cc(-c2cc(-c3ccc(O)c(C)c3)c(-c3ccc(O)c(C)c3)[se]2)ccc1O` [Compound 8b, 2,3,5-Tris(4-hydroxy-3-methylphenyl)selenophene], for which, on ERα, it took 320 nM to reach a half-maximal effect (EC50), the “Agonist Mode ERα Eff (%E2)” value is 112 ± 29 %E2 and the “transcriptional activity profile on ERα” value is “superagonists”. For the same molecule, in data set [3], the β/α is 9.92. Further, at ERβ, the concentration for a half-maximal effect (EC50) amounted to 33 nM and the Emax stood at 77 ± 8%. The inhibition at 10 µM in data set [1] was 16.6%.
`Cc1cc(-c2cc(-c3cc(C)c(O)c(C)c3)c(-c3cc(C)c(O)c(C)c3)[se]2)cc(C)c1O` [Compound 8c, 2,3,5-Tris(4-hydroxy-3,5-dimethylphenyl)selenophene]: the “toxicity to healthy VERO cells” value in the data set on VERO cells is “nontoxic”. Further, on ERα, the EC50 stood at 270 nM and the “Agonist Mode ERα Eff (%E2)” value came to 74 ± 4 %E2. Moreover, the β/α in data set [3] stood at 0.55. At ERβ, the EC50 stood at 17 nM and the Emax was 69 ± 5%. The inhibition at 10 µM in data set [1] turned out to be 75.3%.
